# According to patent US4073942A, “Halo-substituted hydroxybenzyl-amines as secretolytic agents” (Boehringer Ingelheim GmbH, priority 1972, dated 1978):
# Structures can show the parent of a compound that is named as a salt.
# Test system: coughs induced by citric acid spray in awake white rats
# Experiment: Antitussive activity: change in number of citric acid-induced coughs after oral application
# Type: in vivo
# Settings: 50 mgm/kg oral, compared to control group
row,SMILES,"Average change in the number of coughs, in per cent, 30 minutes after oral application of 50 mgm/kg"
1,"Cl.Oc1c(Br)cc(CN[C@H]2CCC[C@@H](O)C2)cc1Br (relative stereo) [C, N-(cis-3'-hydroxy-cyclohexyl)-3,5-dibromo-4-hydroxy-benzylamine hydrochloride]",-35%
2,"CCN(Cc1cc(Br)cc(Br)c1O)C1CCCCC1 [Compound A, N-ethyl-N-cyclohexyl-(3,5-dibromo-2-hydroxy)-benzylamine hydrochloride]",-38%
3,"CCN(Cc1cc(Br)c(O)c(Br)c1)C1CCCCC1 [B, N-ethyl-N-cyclohexyl-3,5-dibromo-4-hydroxy-benzylamine]",-34%

# Test system: secretion in anesthetized rabbits or guinea pigs
# Experiment: Expectorant effect: secretolytic activity, increase of secretion within 2 hours after oral application
# Type: in vivo
# Settings: 8 mgm/kg oral
# Procedure: The increase of secretion within 2 hours was calculated before and after application of the substance see Perry and Boyd in Pharmakol. exp. Therap. 73, 65 (1941)!.
row,SMILES,change in vivo at 8 mg/kg
1,"CCN(Cc1cc(Br)cc(Br)c1O)C1CCCCC1 [Compound A, N-ethyl-N-cyclohexyl-(3,5-dibromo-2-hydroxy)-benzylamine hydrochloride]",81%
2,"CC(CO)(CO)NCc1cc(Br)cc(Br)c1O [G, N-(dihydroxy-tert.butyl)-3,5-dibromo-2-hydroxy-benzylamine hydrochloride]",88%
3,"Oc1c(Br)cccc1CN[C@H]1CC[C@H](O)CC1 [D, N-(trans-4'-hydroxy-cyclohexyl)-3-bromo-2-hydroxy-benzylamine]",66%
4,"CC(CO)(CO)NCc1cc(Cl)c(O)c(Cl)c1 [H, N-(dihydroxy-tert.butyl)-3,5-dichloro-4-hydroxy-benzylamine hydrochloride]",88%
5,"Oc1c(Br)cc(Br)cc1CN[C@H]1CC[C@H](O)CC1 [F, N-(trans-4'-hydroxy-cyclohexyl)-3,5-dibromo-2-hydroxy-benzylamine]",70%
6,"CCC(C)(C)NCc1cc(Br)cc(Br)c1O.Cl [Compound I, N-tert.pentyl-3,5-dibromo-2-hydroxy-benzylamine hydrochloride]",80%
7,"CCN(Cc1cc(Br)c(O)c(Br)c1)C1CCCCC1 [B, N-ethyl-N-cyclohexyl-3,5-dibromo-4-hydroxy-benzylamine]",87%
8,"CN(Cc1cc(Cl)c(O)c(Br)c1)C1CCCCC1.Cl [E, n-methyl-N-cyclohexyl-3-bromo-5-chloro-4-hydroxy-benzylamine hydrochloride]",65%

# Test system: cats
# Experiment: Circulatory effect in cats under chloralose-urethane narcosis after intravenous application
# Type: in vivo
# Settings: 4 mgm/kg, 3 animals per dose
# Procedure: The circulatory effect in cats was determined under chloralose-urethane narcosis after intravenous application of the test compound (3 animals per dose).
row,SMILES,Circulatory effect in cats
1,"CCN(Cc1cc(Br)cc(Br)c1O)C1CCCCC1 [Compound A, N-ethyl-N-cyclohexyl-(3,5-dibromo-2-hydroxy)-benzylamine hydrochloride]",no change

# Same assay, conditions: 8 mgm/kg, 3 animals per dose
row,SMILES,Circulatory effect in cats
1,"CCN(Cc1cc(Br)c(O)c(Br)c1)C1CCCCC1 [B, N-ethyl-N-cyclohexyl-3,5-dibromo-4-hydroxy-benzylamine]",no change

# Test system: stomach ulcers in female rats
# Experiment: Anti-ulcerogenic activity: acetic acid-induced stomach ulcers
# Type: in vivo
# Settings: 50 mgm/kg p.o. in daily food, three weeks
# Procedure: The standard pharmacological test method of […] et al, Jap. J. Pharmac. 19, 418 (1969), was used. The abdominal cavity of female rats having a body weight of 220 to 350 gm under ether anesthesia was opened, and the stomach was exposed. […] The controls received only pulverized rat food. After three weeks, the animals were sacrificed, their stomachs were excised, and the size of the ulcer was determined by measuring its length and width.
row,SMILES,% change in ulcer size versus controls
1,"Cl.Oc1c(Br)cc(CN[C@H]2CCC[C@@H](O)C2)cc1Br (relative stereo) [C, N-(cis-3'-hydroxy-cyclohexyl)-3,5-dibromo-4-hydroxy-benzylamine hydrochloride]",-11%
2,"CCN(Cc1cc(Br)cc(Br)c1O)C1CCCCC1 [Compound A, N-ethyl-N-cyclohexyl-(3,5-dibromo-2-hydroxy)-benzylamine hydrochloride]",-39%
3,"Oc1c(Br)cc(Br)cc1CN[C@H]1CC[C@H](O)CC1 [F, N-(trans-4'-hydroxy-cyclohexyl)-3,5-dibromo-2-hydroxy-benzylamine]",-59%
4,"CN(Cc1cc(Br)cc(Br)c1O)C1CCCCC1 [J, N-methyl-N-cyclohexyl-(3,5-dibromo-2-hydroxy)-benzylamine hydrochloride]",-73%

# Same assay, conditions: 100 mgm/kg p.o. in daily food, three weeks
row,SMILES,% change in ulcer size versus controls
1,"Cl.Oc1c(Br)cc(CN[C@H]2CCC[C@@H](O)C2)cc1Br (relative stereo) [C, N-(cis-3'-hydroxy-cyclohexyl)-3,5-dibromo-4-hydroxy-benzylamine hydrochloride]",-29%
2,"CCN(Cc1cc(Br)cc(Br)c1O)C1CCCCC1 [Compound A, N-ethyl-N-cyclohexyl-(3,5-dibromo-2-hydroxy)-benzylamine hydrochloride]",-54%
3,"Oc1c(Br)cc(Br)cc1CN[C@H]1CC[C@H](O)CC1 [F, N-(trans-4'-hydroxy-cyclohexyl)-3,5-dibromo-2-hydroxy-benzylamine]",-78%
4,"CN(Cc1cc(Br)cc(Br)c1O)C1CCCCC1 [J, N-methyl-N-cyclohexyl-(3,5-dibromo-2-hydroxy)-benzylamine hydrochloride]",-82%

# Test system: not listed separately
# Experiment: Acute toxicity after oral application, 72 hours observation
# Type: in vivo
# Settings: mouse, in vivo, po
# Procedure: (§1) The acute toxicity was determined on groups of 5 white mice after oral application of a dose ranging between 500 mgm/kg and 5000 mgm/kg per animal (time of observation: 72 hours).
row,SMILES,LD50 at 72 h
1,"CCN(Cc1cc(Br)cc(Br)c1O)C1CCCCC1 [Compound A, N-ethyl-N-cyclohexyl-(3,5-dibromo-2-hydroxy)-benzylamine hydrochloride]",> 1000 mg/kg

# Same assay, conditions: mouse, in vivo, po; white mice, 72 hours observation
row,SMILES,LD50 at 72 h
1,"Cl.Oc1c(Br)cc(CN[C@H]2CCC[C@@H](O)C2)cc1Br (relative stereo) [C, N-(cis-3'-hydroxy-cyclohexyl)-3,5-dibromo-4-hydroxy-benzylamine hydrochloride]",> 1000 mg/kg
2,"CC(CO)(CO)NCc1cc(Br)cc(Br)c1O [G, N-(dihydroxy-tert.butyl)-3,5-dibromo-2-hydroxy-benzylamine hydrochloride]",> 5000 mg/kg
3,"Oc1c(Br)cccc1CN[C@H]1CC[C@H](O)CC1 [D, N-(trans-4'-hydroxy-cyclohexyl)-3-bromo-2-hydroxy-benzylamine]",> 500 mg/kg
4,"Oc1c(Br)cc(Br)cc1CN[C@H]1CC[C@H](O)CC1 [F, N-(trans-4'-hydroxy-cyclohexyl)-3,5-dibromo-2-hydroxy-benzylamine]",> 5000 mg/kg
5,"CCC(C)(C)NCc1cc(Br)cc(Br)c1O.Cl [Compound I, N-tert.pentyl-3,5-dibromo-2-hydroxy-benzylamine hydrochloride]",> 5000 mg/kg
6,"CCN(Cc1cc(Br)c(O)c(Br)c1)C1CCCCC1 [B, N-ethyl-N-cyclohexyl-3,5-dibromo-4-hydroxy-benzylamine]",> 1000 mg/kg
7,"CN(Cc1cc(Cl)c(O)c(Br)c1)C1CCCCC1.Cl [E, n-methyl-N-cyclohexyl-3-bromo-5-chloro-4-hydroxy-benzylamine hydrochloride]",> 500 mg/kg
8,"CN(Cc1cc(Br)cc(Br)c1O)C1CCCCC1 [J, N-methyl-N-cyclohexyl-(3,5-dibromo-2-hydroxy)-benzylamine hydrochloride]",> 5000 mg/kg

# Test system: white mice
# Experiment: as above
# Type: in vivo
# Settings: white mice, 500 mgm/kg p.o., 72 hours
# Procedure: as §1
row,SMILES,animals dead
1,"Oc1c(Br)cccc1CN[C@H]1CC[C@H](O)CC1 [D, N-(trans-4'-hydroxy-cyclohexyl)-3-bromo-2-hydroxy-benzylamine]",0 of 5
2,"CN(Cc1cc(Cl)c(O)c(Br)c1)C1CCCCC1.Cl [E, n-methyl-N-cyclohexyl-3-bromo-5-chloro-4-hydroxy-benzylamine hydrochloride]",0 of 5

# Same assay, conditions: white mice, 1000 mgm/kg p.o., 72 hours
row,SMILES,animals dead
1,"Cl.Oc1c(Br)cc(CN[C@H]2CCC[C@@H](O)C2)cc1Br (relative stereo) [C, N-(cis-3'-hydroxy-cyclohexyl)-3,5-dibromo-4-hydroxy-benzylamine hydrochloride]",0 of 5
2,"CCN(Cc1cc(Br)cc(Br)c1O)C1CCCCC1 [Compound A, N-ethyl-N-cyclohexyl-(3,5-dibromo-2-hydroxy)-benzylamine hydrochloride]",0 of 5
3,"CCN(Cc1cc(Br)c(O)c(Br)c1)C1CCCCC1 [B, N-ethyl-N-cyclohexyl-3,5-dibromo-4-hydroxy-benzylamine]",0 of 5

# Same assay, conditions: white mice, 5000 mgm/kg p.o., 72 hours
row,SMILES,animals dead
1,"CC(CO)(CO)NCc1cc(Br)cc(Br)c1O [G, N-(dihydroxy-tert.butyl)-3,5-dibromo-2-hydroxy-benzylamine hydrochloride]",0 of 5
2,"Oc1c(Br)cc(Br)cc1CN[C@H]1CC[C@H](O)CC1 [F, N-(trans-4'-hydroxy-cyclohexyl)-3,5-dibromo-2-hydroxy-benzylamine]",0 of 5
3,"CCC(C)(C)NCc1cc(Br)cc(Br)c1O.Cl [Compound I, N-tert.pentyl-3,5-dibromo-2-hydroxy-benzylamine hydrochloride]",0 of 5
4,"CN(Cc1cc(Br)cc(Br)c1O)C1CCCCC1 [J, N-methyl-N-cyclohexyl-(3,5-dibromo-2-hydroxy)-benzylamine hydrochloride]",1 of 5
